Data taken from patent US20240293558A1, “KRAS INHIBITOR CONJUGATES” (Erasca, Inc., priority 2021, published 2024).
pIC50: −log10 of the molar value.

How the values were obtained:
[1] = molecular target: T1, KRAS (WT) (Homo sapiens, UniProt P01116); test: In-vitro RAS-RAF binding assay (RRB), HTRF/FRET; format: biochemical; details: Table 2, average of multiple runs of each compound; read-out: Inhibition of RAS-RAF Binding (in-vitro) KRAS (WT) IC50
T1 construct: Biotinylated KRAS protein amino acids 1-169 (produced at Erasca); made in house
Outline: (§1)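 Compounds preincubated with terbium-labelled biotinylated KRAS (aa 1-169, 30 nM) before 60 min SOS1-catalysed exchange to GTPgS. Binding of the d2-labelled cRAF RBD (30 nM) is read as FRET at equilibrium in duplicate. Buffer: 50 mM HEPES pH 7.5, 100 mM NaCl, 1 mM MgCl2, 1 mM DTT.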

[2] = molecular target: KRAS G12D (Homo sapiens, UniProt P01116, G12D); test: In-vitro RAS-RAF binding assay (RRB), HTRF/FRET; format: biochemical; set-up: Biotinylated KRAS protein amino acids 1-169 (produced at Erasca); made in house; details: Table 2, average of multiple runs of each compound; read-out: Inhibition of RAS-RAF Binding (in-vitro) KRAS (G12D) IC50
Outline: as §1

T1 sequence (P01116 1-169 isoform P01116-2): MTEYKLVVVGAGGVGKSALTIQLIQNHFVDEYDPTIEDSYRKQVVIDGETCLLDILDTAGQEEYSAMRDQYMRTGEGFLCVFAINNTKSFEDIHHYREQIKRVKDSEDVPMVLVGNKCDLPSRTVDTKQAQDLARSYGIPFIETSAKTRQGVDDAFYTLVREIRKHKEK
Sequence of KRAS G12D (P01116 1-169 isoform P01116-2 G12D): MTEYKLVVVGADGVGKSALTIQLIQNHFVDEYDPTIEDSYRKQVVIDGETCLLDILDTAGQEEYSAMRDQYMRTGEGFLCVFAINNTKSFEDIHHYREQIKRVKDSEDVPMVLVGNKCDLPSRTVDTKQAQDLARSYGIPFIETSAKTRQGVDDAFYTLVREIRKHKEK

Structure (SMILES)	pIC50 [1]	pIC50 [2]
C[C@H](NC(=O)[C@@H]1C[C@@H](O)CN1C(=O)[C@@H](NC(=O)CCOCCCN1CCC[C@H]1COc1nc(N2CC3CCC(C2)N3)c2cc(C(F)(F)F)c(-c3ccc(F)c4sc(N)c(C#N)c34)cc2n1)C(C)(C)C)c1ccc(-c2c(F)cccc2F)cc1 [Example 21, (2S,4R)-1-((2S)-2-(3-(3-((2S)-2-(((7-(2-amino-3-cyano-7-fluorobenzo [b]thiophen-4-yl)-4-(3,8-diazabicyclo[3.2.1]octan-3-yl)-6-(trifluoromethyl)quinazolin-2-yl)oxy)methyl)pyrrolidin-1-yl)propoxy)propanamido)-3,3-dimethylbutanoyl)-N—((S)-1-(2′,6′-difluoro-[1,1′-biphenyl]-4-yl)ethyl)-4-hydroxypyrrolidine-2-carboxamide]	6.79	7.84
C#Cc1c(F)ccc2cc(O)cc(-c3ncc4c(N5CC6CCC(C5)N6)nc(OC[C@@H]5CCCN5CCCOCCCC(=O)N[C@H](C(=O)N5C[C@H](O)C[C@H]5C(=O)N[C@@H](C)c5ccc(-c6c(F)cccc6F)cc5)C(C)(C)C)nc4c3F)c12 [Example 34, (2S,4R)-1-((2S)-2-(4-(3-((2S)-2-(((4-(3,8-diazabicyclo[3.2.1]octan-3-yl)-7-(8-ethynyl-7-fluoro-3-hydroxynaphthalen-1-yl)-8-fluoropyrido[4,3-d]pyrimidin-2-yl)oxy)methyl)pyrrolidin-1-yl)propoxy)butanamido)-3,3-dimethylbutanoyl)-N—((S)-1-(2′,6′-difluoro-[1,1′-biphenyl]-4-yl)ethyl)-4-hydroxypyrrolidine-2-carboxamide]	7.20	8.00
C#Cc1c(F)ccc2cc(O)cc(-c3ncc4c(N5CC6CCC(C5)N6)nc(OC[C@@H]5CCCN5CCCOCCC(=O)N[C@H](C(=O)N5C[C@H](O)C[C@H]5C(=O)N[C@@H](C)c5ccc(N6CCC[C@H]6C#N)cc5)C(C)(C)C)nc4c3F)c12 [Example 33, (2S,4R)-1-((2S)-2-(3-(3-((2S)-2-(((4-(3,8-diazabicyclo[3.2.1]octan-3-yl)-7-(8-ethynyl-7-fluoro-3-hydroxynaphthalen-1-yl)-8-fluoropyrido[4,3-d]pyrimidin-2-yl)oxy)methyl)pyrrolidin-1-yl)propoxy)propanamido)-3,3-dimethylbutanoyl)-N—((S)-1-(4-((S)-2-cyanopyrrolidin-1-yl)phenyl)ethyl)-4-hydroxypyrrolidine-2-carboxamide]	8.52	8.13
C#Cc1c(F)ccc2cc(O)cc(-c3ncc4c(N5CC6CCC(C5)N6)nc(OC[C@@H]5CCCN5CCCOCCC(=O)N[C@H](C(=O)N5C[C@H](O)C[C@H]5C(=O)N[C@@H](C)c5ccc(-c6cc(F)cc(F)c6F)cc5)C(C)(C)C)nc4c3F)c12 [Example 58, (2S,4R)-1-((2S)-2-(3-(3-((2S)-2-(((4-(3,8-diazabicyclo[3.2.1]octan-3-yl)-7-(8-ethynyl-7-fluoro-3-hydroxynaphthalen-1-yl)-8-fluoropyrido[4,3-d]pyrimidin-2-yl)oxy)methyl)pyrrolidin-1-yl)propoxy)propanamido)-3,3-dimethylbutanoyl)-4-hydroxy-N-((S)-1-(2′,3′,5′-trifluoro-[1,1′-biphenyl]-4-yl)ethyl)pyrrolidine-2-carboxamide]	7.18	8.02
C[C@H](NC(=O)[C@@H]1C[C@@H](O)CN1C(=O)[C@@H](NC(=O)CCCCN1CCC[C@H]1COc1nc(N2CC3CCC(C2)N3)c2cnc(-c3cc(O)cc4cccc(F)c34)c(F)c2n1)C(C)(C)C)c1ccc(-c2ccccc2)cc1 [Example 83, (2S,4R)-1-((2S)-2-(5-((2S)-2-(((4-(3,8-diazabicyclo[3.2.1]octan-3-yl)-8-fluoro-7-(8-fluoro-3-hydroxynaphthalen-1-yl)pyrido[4,3-d]pyrimidin-2-yl)oxy)methyl)pyrrolidin-1-yl)pentanamido)-3,3-dimethylbutanoyl)-N-((S)-1-([1,1′-biphenyl]-4-yl)ethyl)-4-hydroxypyrrolidine-2-carboxamide]	6.32	8.11
C#Cc1c(F)ccc2cc(O)cc(-c3ncc4c(N5CC6CCC(C5)N6)nc(OC[C@@H]5CCCN5CCCOCCC(=O)N[C@H](C(=O)N5C[C@H](O)C[C@H]5C(=O)N[C@@H](CO)c5ccc(-c6scnc6C)cc5)C(C)(C)C)nc4c3F)c12 [Example 29, (2S,4R)-1-((2S)-2-(3-(3-((2S)-2-(((4-(3,8-diazabicyclo[3.2.1]octan-3-yl)-7-(8-ethynyl-7-fluoro-3-hydroxynaphthalen-1-yl)-8-fluoropyrido[4,3-d]pyrimidin-2-yl)oxy)methyl)pyrrolidin-1-yl)propoxy)propanamido)-3,3-dimethylbutanoyl)-4-hydroxy-N—((R)-2-hydroxy-1-(4-(4-methylthiazol-5-yl)phenyl)ethyl)pyrrolidine-2-carboxamide]	7.55	8.03
C#Cc1c(F)ccc2cc(O)cc(-c3ncc4c(N5CC6CCC(C5)N6)nc(OCCN5CCC6(CC5)CN(c5cc([C@H](C(=O)N7C[C@H](O)C[C@H]7C(=O)N[C@@H](C)c7ccc(-c8c(F)cc(F)cc8F)cc7)C(C)C)on5)C6)nc4c3F)c12 [Example 36, (2S,4R)-1-((2R)-2-(3-(7-(2-((4-(3,8-diazabicyclo[3.2.1]octan-3-yl)-7-(8-ethynyl-7-fluoro-3-hydroxynaphthalen-1-yl)-8-fluoropyrido[4,3-d]pyrimidin-2-yl)oxy)ethyl)-2,7-diazaspiro[3.5]nonan-2-yl)isoxazol-5-yl)-3-methylbutanoyl)-4-hydroxy-N—((S)-1-(2′,4′,6′-trifluoro-[1,1′-biphenyl]-4-yl)ethyl)pyrrolidine-2-carboxamide]	5.97	8.01
C#Cc1c(F)ccc2cc(O)cc(-c3ncc4c(N5CC6CCC(C5)N6)nc(OC[C@@H]5CCCN5CCCOCCC(=O)N[C@H](C(=O)N5C[C@H](O)C[C@H]5C(=O)N[C@@H](C)c5ccc(-c6c(F)ccc(F)c6F)cc5)C(C)(C)C)nc4c3F)c12 [Example 44, (2S,4R)-1-((2S)-2-(3-(3-((2S)-2-(((4-(3,8-diazabicyclo[3.2.1]octan-3-yl)-7-(8-ethynyl-7-fluoro-3-hydroxynaphthalen-1-yl)-8-fluoropyrido[4,3-d]pyrimidin-2-yl)oxy)methyl)pyrrolidin-1-yl)propoxy)propanamido)-3,3-dimethylbutanoyl)-4-hydroxy-N-((S)-1-(2′,3′,6′-trifluoro-[1,1′-biphenyl]-4-yl)ethyl)pyrrolidine-2-carboxamide]	7.47	8.05
C[C@H](NC(=O)[C@@H]1C[C@@H](O)CN1C(=O)[C@@H](NC(=O)CCOCCCN1CCC[C@H]1COc1nc(N2CC3CCC(C2)N3)c2cc(Cl)c(-c3ccc(F)c4sc(N)c(C#N)c34)c(F)c2n1)C(C)(C)C)c1ccc(-c2ccccc2Cl)cc1 [Example 25, (2S,4R)-1-((2S)-2-(3-(3-((2S)-2-(((7-(2-amino-3-cyano-7-fluorobenzo[b]thiophen-4-yl)-4-(3,8-diazabicyclo[3.2.1]octan-3-yl)-6-chloro-8-fluoroquinazolin-2-yl)oxy)methyl)pyrrolidin-1-yl)propoxy)propanamido)-3,3-dimethylbutanoyl)-N—((S)-1-(2′-chloro-[1,1′-biphenyl]-4-yl)ethyl)-4-hydroxypyrrolidine-2-carboxamide]	6.97	7.92
C#Cc1c(F)ccc2cc(O)cc(-c3ncc4c(N5CC6CCC(C5)N6)nc(OCCN5CCC(COc6cc([C@H](C(=O)N7C[C@H](O)C[C@H]7C(=O)N[C@@H](C)c7ccc(-c8c(F)cc(F)cc8F)cc7)C(C)C)on6)CC5)nc4c3F)c12 [Example 63, (2S,4R)-1-((2R)-2-(3-((1-(2-((4-(3,8-diazabicyclo[3.2.1]octan-3-yl)-7-(8-ethynyl-7-fluoro-3-hydroxynaphthalen-1-yl)-8-fluoropyrido[4,3-d]pyrimidin-2-yl)oxy)ethyl)piperidin-4-yl)methoxy)isoxazol-5-yl)-3-methylbutanoyl)-4-hydroxy-N-((S)-1-(2′,4′,6′-trifluoro-[1,1′-biphenyl]-4-yl)ethyl)pyrrolidine-2-carboxamide]	5.08	7.97
C#Cc1c(F)ccc2cc(O)cc(-c3ncc4c(N5CC6CCC(C5)N6)nc(OC[C@@H]5CCCN5CCCOCCC(=O)N[C@H](C(=O)N5C[C@H](O)C[C@H]5C(=O)N[C@@H](C)c5ccc(-c6ccc(F)c(F)c6F)cc5)C(C)(C)C)nc4c3F)c12 [Example 55, (2S,4R)-1-((2S)-2-(3-(3-((2S)-2-(((4-(3,8-diazabicyclo[3.2.1]octan-3-yl)-7-(8-ethynyl-7-fluoro-3-hydroxynaphthalen-1-yl)-8-fluoropyrido[4,3-d]pyrimidin-2-yl)oxy)methyl)pyrrolidin-1-yl)propoxy)propanamido)-3,3-dimethylbutanoyl)-4-hydroxy-N-((S)-1-(2′,3′,4′-trifluoro-[1,1′-biphenyl]-4-yl)ethyl)pyrrolidine-2-carboxamide]	7.17	8.01
Cc1ncsc1-c1ccc([C@H](CO)NC(=O)[C@@H]2C[C@@H](O)CN2C(=O)[C@@H](NC(=O)CCCCN2CCC[C@H]2COc2nc(N3CC4CCC(C3)N4)c3cc(Cl)c(-c4ccc(F)c5sc(N)c(C#N)c45)c(F)c3n2)C(C)(C)C)cc1 [Example 88, (2S,4R)-1-((2S)-2-(5-((2S)-2-(((7-(2-amino-3-cyano-7-fluorobenzo[b]thiophen-4-yl)-4-(3,8-diazabicyclo[3.2.1]octan-3-yl)-6-chloro-8-fluoroquinazolin-2-yl)oxy)methyl)pyrrolidin-1-yl)pentanamido)-3,3-dimethylbutanoyl)-4-hydroxy-N-((R)-2-hydroxy-1-(4-(4-methylthiazol-5-yl)phenyl)ethyl)pyrrolidine-2-carboxamide]	7.20	7.79
